Assay results reported in ChEMBL document CHEMBL4004883, “Biologically active perspective synthesis of heteroannulated 8-nitroquinolines with green chemistry approach” (Bioorg Med Chem Lett, 2017).
Converted amounts (≈) assume the structure as drawn.

What was measured:
[1] = Antioxidant activity assessed as assessed as ferric ion reducing activity by measuring absorbance at 700 nm at 60 ug/ml after 20 mins by spectrophotometric method; format: functional
[2] = Antioxidant activity assessed as DPPH radical scavenging activity after 20 mins by UV/VIS Spectrophotometric method; format: functional
Bacillus subtilis [3] = experiment: Antibacterial activity against Bacillus subtilis MTCC 121 at 100 ug incubated for 24 hrs under dark condition by agar well diffusion method; format: functional; details: MTCC 121, 24 h, read-out: IZ
[4] = Antioxidant activity assessed as assessed as ferric ion reducing activity by measuring absorbance at 700 nm at 100 ug/ml after 20 mins by spectrophotometric method; format: functional
A549 = experiment: Cytotoxicity against human A549 cells assessed as decrease in cell viability after 48 hrs by MTT assay; format: functional, cell-based; details: A549, 48 h
[5] = Antioxidant activity assessed as total antioxidant capacity measured as ascorbic acid equivalents at 100 ug/ml after 90 mins by phosphomolybdenum method; format: functional
Pseudomonas aeruginosa [6] = experiment: Antibacterial activity against Pseudomonas aeruginosa MTCC 102 at 100 ug incubated for 24 hrs under dark condition by agar well diffusion method; format: functional; details: MTCC 102, 24 h, read-out: IZ
[7] = Antioxidant activity assessed as assessed as ferric ion reducing activity by measuring absorbance at 700 nm at 20 ug/ml after 20 mins by spectrophotometric method; format: functional
Staphylococcus aureus [8] = experiment: Antibacterial activity against Staphylococcus aureus MTCC 96 incubated for 24 hrs under dark condition by microwell dilution method; format: functional; details: MTCC 96, 24 h
[9] = Antioxidant activity assessed as total antioxidant capacity measured as ascorbic acid equivalents at 20 ug/ml after 90 mins by phosphomolybdenum method; format: functional
MCF7 = experiment: Cytotoxicity against human MCF7 cells assessed as decrease in cell viability after 48 hrs by MTT assay; format: functional, cell-based; details: MCF7, 48 h
[10] = Antioxidant activity assessed as total antioxidant capacity measured as ascorbic acid equivalents at 60 ug/ml after 90 mins by phosphomolybdenum method; format: functional
Bacillus subtilis [11] = experiment: Antibacterial activity against Bacillus subtilis MTCC 121 incubated for 24 hrs under dark condition by microwell dilution method; format: functional; details: MTCC 121, 24 h
Staphylococcus aureus [12] = experiment: Antibacterial activity against Staphylococcus aureus MTCC 96 at 100 ug incubated for 24 hrs under dark condition by agar well diffusion method; format: functional; details: MTCC 96, 24 h, read-out: IZ
Escherichia coli [13] = experiment: Antibacterial activity against Escherichia coli MTCC 1652 at 100 ug incubated for 24 hrs under dark condition by agar well diffusion method; format: functional; details: MTCC 1652, 24 h, read-out: IZ
Pseudomonas aeruginosa [14] = experiment: Antibacterial activity against Pseudomonas aeruginosa MTCC 102 incubated for 24 hrs under dark condition by microwell dilution method; format: functional; details: MTCC 102, 24 h
Escherichia coli [15] = experiment: Antibacterial activity against Escherichia coli MTCC 1652 incubated for 24 hrs under dark condition by microwell dilution method; format: functional; details: MTCC 1652, 24 h

| Compound | OD [1] | IC50 [2] | zone of inhibition at 100 µg/disc (Bacillus subtilis [3]) | OD [4] | IC50 (A549) | Activity [5] | zone of inhibition at 100 µg/disc (Pseudomonas aeruginosa [6]) | OD [7] | MIC (Staphylococcus aureus [8]) | Activity [9] | IC50 (MCF7) | Activity [10] | MIC (Bacillus subtilis [11]) | zone of inhibition at 100 µg/disc (Staphylococcus aureus [12]) | zone of inhibition at 100 µg/disc (Escherichia coli [13]) | MIC (Pseudomonas aeruginosa [14]) | MIC (Escherichia coli [15]) |
| --- | --- | --- | --- | --- | --- | --- | --- | --- | --- | --- | --- | --- | --- | --- | --- | --- | --- |
| COc1ccc(C2C(C#N)=C(N)OC3=C2CNc2c3cccc2[N+](=O)[O-])c(OC)c1 (centres undefined) | 0.112 | 122.13 µg/mL (≈ 301 µM) | 15 mm | 0.162 | 44.6 µM | 14.2 µgequiv/ml | 13 mm | 0.08 | 40 µg/mL (≈ 98.4 µM) | 4.79 µgequiv/ml | 51.2 µM | 9.89 µgequiv/ml | 20 µg/mL (≈ 49.2 µM) | 14 mm | 15 mm | 150 µg/mL (≈ 369 µM) | 42.5 µg/mL (≈ 105 µM) |
| O=[N+]([O-])c1cccc2c1NCC1C2=NN(c2ccccc2)C1c1ccc(Br)cc1 (centres undefined) | 0.096 | 226.97 µg/mL (≈ 505 µM) | 19 mm | 0.107 | 29.6 µM | 18.2 µgequiv/ml | 16 mm | 0.09 | 15 µg/mL (≈ 33.4 µM) | 6.12 µgequiv/ml | 34.7 µM | 13.7 µgequiv/ml | 12.5 µg/mL (≈ 27.8 µM) | 16 mm | 18 mm | 55.5 µg/mL (≈ 124 µM) | 25.5 µg/mL (≈ 56.8 µM) |
| N#CC1=C(N)OC2=C(CNc3c2cccc3[N+](=O)[O-])C1c1ccc(F)cc1 (centres undefined) | 0.098 | 128.58 µg/mL (≈ 353 µM) | 26 mm | 0.12 | 22.1 µM | 7.45 µgequiv/ml | 20 mm | 0.085 | 5 µg/mL (≈ 13.7 µM) | 2.12 µgequiv/ml | 35.7 µM | 4.06 µgequiv/ml | 7.5 µg/mL (≈ 20.6 µM) | 23 mm | 22 mm | 37 µg/mL (≈ 102 µM) | 17 µg/mL (≈ 46.7 µM) |
| N#CC1=C(N)OC2=C(CNc3c2cccc3[N+](=O)[O-])C1c1ccc(Cl)cc1 (centres undefined) | 0.125 | 118.03 µg/mL (≈ 310 µM) | 24 mm | 0.189 | 28.1 µM | 2.57 µgequiv/ml | 18 mm | 0.088 | 10 µg/mL (≈ 26.3 µM) | 0.59 µgequiv/ml | 22.7 µM | 1.06 µgequiv/ml | 10 µg/mL (≈ 26.3 µM) | 21 mm | 21 mm | 55.5 µg/mL (≈ 146 µM) | 17 µg/mL (≈ 44.6 µM) |
| O=[N+]([O-])c1cccc2c1NCC1C2=NN(c2ccccc2)C1c1ccc(F)cc1 (centres undefined) | 0.1 | 205.13 µg/mL (≈ 528 µM) | 18 mm | 0.112 | 23.2 µM | 11.2 µgequiv/ml | 18 mm | 0.092 | 10 µg/mL (≈ 25.7 µM) | 4.02 µgequiv/ml | 46 µM | 7.36 µgequiv/ml | 12.5 µg/mL (≈ 32.2 µM) | 20 mm | 21 mm | 55.5 µg/mL (≈ 143 µM) | 17 µg/mL (≈ 43.8 µM) |
| O=[N+]([O-])c1cccc2c1NCC1C2=NN(c2ccccc2)C1c1ccc(Cl)cc1 (centres undefined) | 0.09 | 202.18 µg/mL (≈ 499 µM) | 16 mm | 0.101 | 28.7 µM | 10.4 µgequiv/ml | 13 mm | 0.082 | 15 µg/mL (≈ 37.1 µM) | 4.12 µgequiv/ml | 41.4 µM | 6.17 µgequiv/ml | 15 µg/mL (≈ 37.1 µM) | 17 mm | 17 mm | 100 µg/mL (≈ 247 µM) | 34 µg/mL (≈ 84 µM) |
| CC1(C)S[C@@H]2[C@H](NC(=O)[C@H](N)c3ccccc3)C(=O)N2[C@H]1C(=O)O [AMPICILLIN] | – | – | 30 mm | – | – | – | 22 mm | – | 2.5 µg/mL (≈ 7.15 µM) | – | – | – | 2.5 µg/mL (≈ 7.15 µM) | 24 mm | 24 mm | 18.5 µg/mL (≈ 52.9 µM) | 8.5 µg/mL (≈ 24.3 µM) |
| Cc1cc(C(C)(C)C)c(O)c(C(C)(C)C)c1 | 0.448 | – | – | 0.612 | – | – | – | 0.329 | – | – | – | – | – | – | – | – | – |
| O=C1O[C@H]([C@@H](O)CO)C(O)=C1O [ASCORBIC ACID] | – | 28.02 µg/mL (≈ 159 µM) | – | – | – | – | – | – | – | – | – | – | – | – | – | – | – |
